Laboratory results reported in patent publication US20230148450A9, “BICYCLIC HETEROARYL COMPOUNDS AND USES THEREOF” (Revolution Medicines, Inc., priority 2019, published 2023).
Where two headings read alike, the source gives them in different places.

What was measured:
[1] = biological target: T1, SOS1 nucleotide exchange of KRAS (catalytic domain of SOS1, residues 564-1049; wild-type KRAS) (Homo sapiens, UniProt Q07889); assay: Mode of Action Assay: Inhibition of SOS1 Nucleotide Exchange Activity (TR-FRET); format: biochemical; conditions: TR-FRET signal
T1 construct: tagless catalytic domain of SOS1 (residues 564-1049)
T1 sequence (Q07889 564-1049): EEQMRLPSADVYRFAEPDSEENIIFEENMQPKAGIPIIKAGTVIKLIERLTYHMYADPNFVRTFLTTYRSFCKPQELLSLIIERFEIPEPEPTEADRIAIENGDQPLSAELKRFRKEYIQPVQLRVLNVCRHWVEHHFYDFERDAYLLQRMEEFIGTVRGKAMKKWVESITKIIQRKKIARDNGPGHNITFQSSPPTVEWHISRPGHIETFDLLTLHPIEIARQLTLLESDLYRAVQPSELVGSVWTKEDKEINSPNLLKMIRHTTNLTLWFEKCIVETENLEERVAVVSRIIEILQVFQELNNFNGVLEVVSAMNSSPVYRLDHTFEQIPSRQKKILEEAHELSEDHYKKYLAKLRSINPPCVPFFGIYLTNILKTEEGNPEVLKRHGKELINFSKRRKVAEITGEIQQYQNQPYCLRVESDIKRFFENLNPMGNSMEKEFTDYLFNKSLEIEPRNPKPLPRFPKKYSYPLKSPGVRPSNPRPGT
Method: The purpose of this assay was to characterize the inhibitory activity of compounds on SOS1 nucleotide exchange of KRAS. Data was reported as IC50 values based on the TR-FRET signal.
Note—the following protocol describes a procedure for monitoring the inhibition of SOS1 nucleotide exchange activity of wild-type KRAS in response to a compound of the invention. Other KRAS mutants and RAS isoforms maybe employed.
In assay buffer containing 20 mM HEPES, pH 7.5, 150 mM NaCl, 5 mM MgCl2, 0.05% Tween-20, 0.1% BSA, 1 mM DTT, concentration series of test compounds were generated spanning 100 μM to 1.7 nM over eleven 3-fold serial dilutions in a 384-well assay plate at a volume of 20 μL. The purified tagless catalytic domain of SOS1 (residues 564-1049) was first diluted in assay buffer at a concentration of 100 nM, and then 20 μL of the SOS1 containing solution was directly dispensed into compound plates. The SOS1/compound mixture was incubated at room temperature with constant mixing on an orbital shaker for 20 minutes to allow the reaction to reach equilibrium. A KRAS mixture was prepared by diluting 66.7 nM avi-tagged KRAS (residue 1-169), 3.33 nM Streptavidin-Tb and 333 nM EDA-GTP-DY-647P1 in assay buffer. This mixture was prepared immediately before addition to the SOS1/compound mixture to prevent intrinsic nucleotide exchange. Then 5 μL of the pre-incubated SOS1/compound mixture and 7.5 μL of the KRAS mixture were added sequentially in a 384-well low volume black round bottom plate and incubated at room temperature with constant shaking for 30 minutes. Time-resolved fluorescence was measured on a PerkinElmer Envision plate reader. DMSO and 10 μM of compound (i) were used as negative and positive controls, respectively.
Three replicates were performed for each compound. Data were normalized by the following: (Positive control—Sample signal)/(Positive control—negative control)*100. The data were fit using a four-parameter logistic fit.

[2] = biological target: T2, SOS1 catalytic domain (residues 564-1049) (Homo sapiens, UniProt Q07889); assay: Binding affinity to SOS1 using Surface Plasmon Resonance (SPR); conditions: avi-tagged SOS1 catalytic domain immobilized on sensor chip; read-out: SOS1 SPR Equilibrium Kd
T2 construct: SOS1 catalytic domain (residues 564-1049) immobilized on a sensor chip
T2 sequence (Q07889 564-1049): T1 sequence (Q07889 564-1049)
Excerpt: Potency Assay: Measurement of the Binding Affinity of Compounds of the Invention to SOS! using Surface Plasmon Resonance (SPR)
The purpose of the SPR assay was to measure the direct binding of compounds to SOS1 catalytic domain (residues 564-1049) immobilized on a sensor chip. Data was reported as equilibrium dissociation constant (Kd) values.
Using a GE Biacore 8K SPR instrument, avi-tagged SOS1 catalytic domain protein was immobilized to a level of approximately 6000 response units (RU) on a streptavidin-coated SPR sensor chip in assay buffer containing 0.01 M HEPES, 0.15 M NaCl and 0.05% v/v Surfactant P20. In assay buffer containing 2% DMSO, concentration series of test compounds were generated spanning 5 μM to 4.9 nM over ten 2-fold dilutions. For each test compound, a separate 0 μM sample was generated for use during subsequent double reference subtraction. Serially for each test compound, individual dilution samples were flowed over the immobilized SOS1 protein at a flow rate of 50 μL/minute to monitor the association with SOS1. Dissociation of bound test compound from the SOS1 protein was immediately monitored by flowing assay buffer over the sensor surface and monitoring the decrease in binding signal back to the baseline level seen in the absence of compound. This was repeated for all compound dilutions in each series. The binding level response for each test compound concentration was noted immediately prior to the end of the association phase, and a secondary plot generated showing binding response level versus test compound concentration generated for each compound dilution series.

[3] = system: cellular pERK in PC-9 cells (EGFR Ex19Del); assay: Potency Assay: pERK; format: cell-based; conditions: Homo sapiens, read-out: SOS1 pERK IC50
Excerpt: The purpose of this assay is to measure the ability of test compounds to inhibit SOS1 function in cells. SOS1 activates RAS proteins by catalyzing the conversion of […] to […] in response to receptor tyrosine kinase activation. Activation of RAS induces a sequence of cellular signaling events that results in increased phosphorylation of ERK at […] (pERK). The procedure described below measures the level of cellular pERK in response to test compounds in PC-9 cells (EGFR Ex[…]). PC-9 cells were grown and maintained using media and procedures recommended by the ATCC. On the day prior to compound addition, cells were plated in 384-well cell culture plates (40 μL/well) and grown overnight in a 37° C., 5% CO2 incubator. Test compounds were prepared in 10, 3-fold dilutions in DMSO, with a top concentration of 10 mM. On the day of the assay, 40 nL of test compound was added to each well of cell culture plate using an Echo550 liquid handler (LabCyte). Concentrations of test compound were tested in duplicate with highest test concentration being 10 μM. After compound addition, cells were incubated for 1 hour at 37° C., 5% CO2. Following incubation, culture medium was removed and cells were washed once with phosphate buffered saline. Cellular pERK level was determined using the AlphaLISA SureFire Ultra p-ERK1/2 Assay Kit (PerkinElmer). Cells were lysed in 25 μL lysis buffer, with shaking at 600 RPM at room temperature for 15 minutes. Lysate (10 μL) was transferred to a 384-well Opti-plate (PerkinElmer) and 5 μL acceptor mix was added. The plate was centrifuged at 1000 RPM for 1 minute, and incubated in the dark for 2 hours. Following this incubation, 5 μL of donor mix was added, the plate was sealed and centrifuged at 1000 RPM for 1 minute, and the mixture was incubated for 2 hours at room temperature. Signal was read on an Envision plate reader (PerkinElmer) using standard AlphaLISA settings. Analysis of raw data was carried out in Excel (Microsoft) and Prism (GraphPad). Signal was plotted vs. the decadal logarithm of compound concentration, and IC50 was determined by fitting a 4-parameter sigmoidal concentration response model.

[4] = PC-9 cells (EGFR Ex19Del), 1 hour incubation, AlphaLISA p-ERK1/2

SMILES	IC50 [1] [µM]	Kd [2] [µM]	IC50 [3, 4] [µM]	IC50 ([3]; PC-9, 1 h) [µM]
Cc1cn2nc(C(=O)N3CC4CC3CN4C)cc2c(N[C@H](C)c2cc(N)cc(C(F)(F)F)c2)n1 (stereo partly drawn) [Example 81]	< 1	≤ 0.4	< 1	–
C[C@@H](Nc1nccc2nc(C(=O)N3CC4(C3)CN(C3CC3)C4)cn12)c1cccc(C(F)F)c1F [Example 90]	< 1	≤ 0.4	< 1	–
C[C@@H](Nc1ncnc2cc(C(=O)N3CCOCC3)sc12)c1cc(N)cc(C(F)(F)F)c1 [Example 31, [4-[[(1R)-1-[3-amino-5-(trifluoromethyl)phenyl]ethyl]amino]thieno[3,2-d]pyrimidin-6-yl]-morpholino-methanone]	> 1	≤ 0.4	> 1	–
C[C@@H](Nc1ncnc2sc(C(=O)N3CCOCC3)nc12)c1cc(N)cc(C(F)(F)F)c1 [Example 42, [7-[[(1R)-1-[3-amino-5-(trifluoromethyl)phenyl]ethyl]amino]thiazolo[5,4-d]pyrimidin-2-yl]-morpholino-methanone]	< 1	≤ 0.4	< 1	–
Cc1cn2nc(C(=O)N3CC4CCC(C3)N4C)cc2c(N[C@H](C)c2cc(N)cc(C(F)(F)F)c2)n1 [Example 78]	< 1	–	< 1	–
C[C@@H](Nc1nc(Cl)nc2cc(C(=O)N3CCOCC3)[nH]c12)c1cc(N)cc(C(F)(F)F)c1 [Example 51, N-[(1R)-1-[3-amino-5-(trifluoromethyl)phenyl]ethyl]-2-chloro-6-(morpholine-4-carbonyl)-5H-pyrrolo[3,2-d]pyrimidin-4-amine]	> 1	> 0.4	> 1	–
C[C@@H](Nc1nccc2sc(C3=CCNCC3)cc12)c1cc(N)cc(C(F)(F)F)c1 [Example 56, N-[(1R)-1-[3-amino-5-(trifluoromethyl)phenyl]ethyl]-2-(1,2,3,6-tetrahydropyridin-4-yl)thieno[3,2-c]pyridin-4-amine]	> 1	–	> 1	–
Cc1nc(N[C@H](C)c2cc(N)cc(C(F)(F)F)c2)c2cc([C@]3(O)CC[C@H](C(=O)N(C)C)CC3)cn2n1 [Example 66, 4-[4-[[(1R)-1-[3-amino-5-(trifluoromethyl)phenyl]ethyl]amino]-2-methyl-pyrrolo[2,1-f][1,2,4]triazin-6-yl]-4-hydroxy-N,N-dimethylcyclohexanecarboxamide]	–	≤ 0.4	> 1	–
C[C@@H](Nc1ncnc2cc(C3=CCNCC3)sc12)c1cc(N)cc(C(F)(F)F)c1 [Example 49, N-[(1R)-1-[3-amino-5-(trifluoromethyl)phenyl]ethyl]-6-(1,2,3,6-tetrahydropyridin-4-yl)thieno[3,2-d]pyrimidin-4-amine]	> 1	–	> 1	–
Cc1cn2nc(C(=O)N3CCN(C)CC3)cc2c(N[C@H](C)c2cccc(C(F)(F)F)c2)n1 [Example 61]	> 1	–	> 1	–
CNCc1cc2c(N[C@H](C)c3cc(N)cc(C(F)(F)F)c3)nc(C)nn2c1 [Example 28, N-[(1R)-1-[3-amino-5-(trifluoromethyl)phenyl]ethyl]-2-methyl-6-(methylaminomethyl)pyrrolo[2,1-f][1,2,4]triazin-4-amine]	–	> 0.4	< 1	–
C[C@@H](Nc1nc(Cl)nn2cc(C(=O)N3CCN(C)CC3)cc12)c1cc(N)cc(C(F)(F)F)c1 [Example 94, N-[(1R)-1-[3-amino-5-(trifluoromethyl)-phenyl]ethyl]-2-chloro-6-(4-methylpiperazine-1-carbonyl)pyrrolo[2,1-f][1,2,4]triazin-4-amine]	< 1	–	< 1	–
C[C@@H](Nc1nc(Cl)nn2cc(C(=O)N3CCN(C)CC3)cc12)c1cccc(C(F)(F)F)c1 [Example 95]	> 1	–	> 1	–
COc1cc2c(N[C@H](C)c3cc(N)cc(C(F)(F)F)c3)nc(C)nn2c1 [Example 30, N-[(1R)-1-[3-amino-5-(trifluoromethyl)phenyl]ethyl]-6-methoxy-2-methyl-pyrrolo[2,1-f]-[1,2,4]triazin-4-amine]	–	> 0.4	> 1	–
C[C@@H](Nc1nc(Cl)nn2cc(C(=O)N3CCN(C)CC3)cc12)c1cccc(C(F)F)c1F [Example 98]	< 1	–	< 1	–
C[C@@H](Nc1ncnc2c1cc(C1CCNCC1)n2C)c1cc(N)cc(C(F)(F)F)c1 [Example 38, N-[(1R)-1-[3-amino-5-(trifluoromethyl)phenyl]ethyl]-7-methyl-6-(4-piperidyl)pyrrolo[2,3-d]pyrimidin-4-amine]	–	–	> 1	–
C[C@@H](Nc1cc(Cl)nc2nc(C(=O)N3CCOCC3)cn12)c1cc(N)cc(C(F)(F)F)c1 [Example 48, [5-[[(1R)-1-[3-amino-5-(trifluoromethyl)phenyl]ethyl]amino]-7-chloro-imidazo[1,2-a]pyrimidin-2-yl]-morpholino-methanone]	–	> 0.4	–	< 1
C[C@@H](Nc1nc(Cl)nn2cc(C(=O)N3CC4(COC4)C3)cc12)c1cccc(C(F)(F)F)c1 [Example 96]	> 1	–	< 1	–
C[C@@H](Nc1nc(Cl)cn2cc(C(=O)N3CCOCC3)cc12)c1cc(N)cc(C(F)(F)F)c1 [Example 102, N-[(1R)-1-[3-amino-5-(trifluoromethyl)phenyl]ethyl]-3-chloro-7-(morpholine-4-carbonyl)pyrrolo [1,2-a]pyrazin-1-amine]	> 1	–	> 1	–
